Here are results for 28 compounds from patent US8003695B2 (Chroma Therapeutics Ltd., priority 2006, dated 2011).

pIC50: −log10 of the molar value.

The test deals with T1, IKBKB (IKKβ) (Homo sapiens, UniProt O14920).
T1 construct: purchased Invitrogen (Paisley, UK)
T1 sequence (O14920 1-756): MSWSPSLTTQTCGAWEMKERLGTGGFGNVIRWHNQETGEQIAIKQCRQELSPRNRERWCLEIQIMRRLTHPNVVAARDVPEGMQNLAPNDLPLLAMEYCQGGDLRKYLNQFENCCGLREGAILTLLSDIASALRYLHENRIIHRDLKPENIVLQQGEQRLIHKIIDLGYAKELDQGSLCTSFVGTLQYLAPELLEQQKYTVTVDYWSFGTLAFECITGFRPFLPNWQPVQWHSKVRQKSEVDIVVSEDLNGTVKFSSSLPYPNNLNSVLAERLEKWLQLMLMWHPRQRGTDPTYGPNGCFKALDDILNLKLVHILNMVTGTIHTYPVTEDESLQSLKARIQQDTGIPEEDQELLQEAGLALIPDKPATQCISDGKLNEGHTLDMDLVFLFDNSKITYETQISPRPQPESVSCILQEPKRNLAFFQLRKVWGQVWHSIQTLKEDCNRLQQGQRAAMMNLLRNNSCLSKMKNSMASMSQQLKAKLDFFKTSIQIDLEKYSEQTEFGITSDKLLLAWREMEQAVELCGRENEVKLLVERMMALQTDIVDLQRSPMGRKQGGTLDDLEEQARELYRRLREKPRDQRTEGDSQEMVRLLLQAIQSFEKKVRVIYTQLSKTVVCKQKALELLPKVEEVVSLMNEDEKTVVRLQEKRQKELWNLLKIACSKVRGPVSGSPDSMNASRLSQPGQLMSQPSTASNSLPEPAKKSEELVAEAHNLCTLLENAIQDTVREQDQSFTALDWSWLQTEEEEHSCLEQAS
Description: IKKβ Enzyme Assay (Z'-LYTE, Invitrogen). The test is classed as biochemical. The note with it: ATP at or close to Km; read-out: Inhibitor activity versus IKKβ. The method, then:
The ability of compounds to inhibit IKKβ kinase activity was measured in an assay performed by Invitrogen (Paisley, UK). The Z′-LYTE™ biochemical assay employs a fluorescence-based, coupled-enzyme format and is based on the differential sensitivity of phosphorylated and non-phosphorylated peptides to proteolytic cleavage. The peptide substrate is labelled with two fluorophores—one at each end—that make up a FRET pair. In the primary reaction, the kinase transfers the gamma-phosphate of ATP to a single serine or threonine residue in a synthetic FRET-peptide. In the secondary reaction, a site-specific protease recognizes and cleaves non-phosphorylated FRET-peptides. Phosphorylation of FRET-peptides suppresses cleavage by the Development Reagent. Cleavage disrupts FRET between the donor (i.e., coumarin) and acceptor (i.e. fluorescein) fluorophores on the FRET-peptide, whereas uncleaved, phosphorylated FRET-peptides maintain FRET. A […] method, which calculates the ratio (the Emission Ratio) of donor emission to acceptor emission after excitation of the donor fluorophore at 400 nm, is used to quantitate reaction progress.
The final 10 μL Kinase Reaction consists of 0.9-8.0 ng IKBKB (IKKβ), 2 μM Ser/Thr 05 Peptide and ATP in 50 mM HEPES pH 7.5, 0.01% BRIJ-35, 10 mM MgCl2, 1 mM EGTA. The assay is performed at an ATP concentration at, or close to the Km. After the 60 minute Kinase Reaction incubation at room temperature, 5 μL of a 1:128 dilution of Development Reagent is added. The assay plate is incubated for a further 60 minutes at room temperature and read on a fluorescence plate reader.
Duplicate data points are generated from a ⅓ log dilution series of a stock solution of test compound in DMSO. Nine dilutions steps are made from a top concentration of 10 μM, and a ‘no compound’ blank is included. Data is collected and analysed using XLfit software from IDBS. The dose response curve is curve fitted to model number 205 (sigmoidal dose-response model). From the curve generated, the concentration giving 50% inhibition is determined and reported.
With `NC(=O)Nc1sc(-c2ccc(CN[C@H](C(=O)O)c3ccccc3)cc2)cc1C(N)=O` [Example 50, (2S)-({4-[4-carbamoyl-5-(carbamoylamino)-2-thienyl]benzyl}amino)(phenyl)acetic acid], the pIC50 is over 6.00. For `CC(C)C[C@H](NCc1ccc(-c2cc(C(N)=O)c(NC(N)=O)s2)cc1)C(=O)O` [Example 51, N-{4-[4-Carbamoyl-5-(carbamoylamino)-2-thienyl]benzyl}-L-leucine] the value was over 6.00; for `NC(=O)Nc1sc(-c2ccc(CN[C@@H](Cc3ccccc3)C(=O)O)cc2)cc1C(N)=O` [Example 52, N-{-4-[4-Carbamoyl-5-(carbamoylamino)-2-thienyl]benzyl}-L-phenylalanine], over 6.00. In the case of `NC(=O)Nc1sc(-c2ccc(CN[C@@H](C(=O)O)c3ccccc3)cc2)cc1C(N)=O` [Example 53, (2R)-({-4-[4-Carbamoyl-5-(carbamoylamino)-2-thienyl]benzyl}amino)(phenyl)acetic acid], the pIC50 was over 6.00. As for `NC(=O)Nc1sc(-c2ccc(CN[C@H](C(=O)O)c3ccc4ccccc4c3)cc2)cc1C(N)=O` [Example 54, (2S)-({-4-[4-Carbamoyl-5-(carbamoylamino)-2-thienyl]benzyl}amino)(2-naphthyl)acetic acid], the pIC50 is over 6.00. As for `CC(C)C[C@H](NCc1ccc(-c2cc(C(N)=O)c(NC(N)=O)s2)c(Cl)c1)C(=O)O` [Example 55, N{4-[4-carbamoyl-5-(carbamoylamino)-2-thienyl]-3-chlorobenzyl}-L-leucine], the pIC50 is over 6.00. Consider `Cc1cc(-c2cc(C(N)=O)c(NC(N)=O)s2)ccc1CN[C@@H](CC(C)C)C(=O)O` [Example 56, N-{4-[4-carbamoyl-5-(carbamoylamino)-2-thienyl]-2-methylbenzyl}-L-leucine], for which the pIC50 is over 6.00. As to `CC(C)C[C@H](NCc1cccc(-c2cc(C(N)=O)c(NC(N)=O)s2)c1)C(=O)O` [Example 57, N-{3-[4-Carbamoyl-5-(carbamoylamino)-2-thienyl]benzyl}-L-leucine], the pIC50 was over 6.00. For the compound `NC(=O)Nc1sc(-c2cccc(CN[C@H](C(=O)O)c3ccccc3)c2)cc1C(N)=O` [Example 58, (2S)-({3-[4-carbamoyl-5-(carbamoylamino)-2-thienyl]benzyl}amino)(phenyl)acetic acid], the pIC50 was over 6.00.

For the compound `NC(=O)Nc1sc(-c2cccc(CN[C@H](C(=O)O)C3CCCCC3)c2)cc1C(N)=O` [Example 59, (2S)-({3-[4-carbamoyl-5-(carbamoylamino)-2-thienyl]benzyl}amino)(cyclohexyl)acetic acid], the pIC50 was over 6.00.

`CC(C)(C)OC[C@H](NCc1cccc(-c2cc(C(N)=O)c(NC(N)=O)s2)c1)C(=O)O` [Example 60, O-tert-butyl-N-{3-[4-carbamoyl-5-(carbamoylamino)thiophen-2-yl]benzyl}-L-serine]: the pIC50 is over 6.00. Regarding `C[C@@H](O)[C@H](NCc1cccc(-c2cc(C(N)=O)c(NC(N)=O)s2)c1)C(=O)O` [Example 61, N-{3-[4-carbamoyl-5-(carbamoylamino)thiophen-2-yl]benzyl}-L-threonine], the pIC50 was over 6.00. The same measure for `CC(C)C[C@H](NCCc1ccc(-c2cc(C(N)=O)c(NC(N)=O)s2)cc1)C(=O)O` [Example 63]: over 6.00; for `CC(C)C[C@H](NCCc1ccc(-c2cc(C(N)=O)c(NC(N)=O)s2)c(Cl)c1)C(=O)O` [Example 64, N-(2-{-4-[4-Carbamoyl-5-(carbamoylamino)-2-thienyl]-3-chlorophenyl}ethyl)-L-leucine]: over 6.00. The same measure for `CC(C)C[C@H](NCCCOc1ccc(-c2cc(C(N)=O)c(NC(N)=O)s2)cc1)C(=O)O` [Example 65, N-(3-{4-[4-Carbamoyl-5-(carbamoylamino)-2-thienyl]phenoxy}propyl)-L-leucine]: over 6.00; for `CC(C)C[C@H](NCCCOc1ccc(-c2cc(C(N)=O)c(NC(N)=O)s2)c(Cl)c1)C(=O)O` [Example 66, N-(3-{4-[4-Carbamoyl-5-(carbamoylamino)-2-thienyl]-3-chlorophenoxy}propyl)-L-leucine]: over 6.00. For `CC(C)C[C@H](NCCCCCOc1ccc(-c2cc(C(N)=O)c(NC(N)=O)s2)cc1)C(=O)O` [Example 67] the value was over 6.00. For `CC(C)C[C@H](NCCCCCOc1ccc(-c2cc(C(N)=O)c(NC(N)=O)s2)c(Cl)c1)C(=O)O` [Example 68, N-(5-{4-[4-Carbamoyl-5-(carbamoylamino)-2-thienyl]-3-chlorophenoxy}pentyl)-L-leucine], the pIC50 was over 6.00.

With `CC(C)C[C@H](NC/C=C/c1ccc(-c2cc(C(N)=O)c(NC(N)=O)s2)cc1)C(=O)O` [Example 69, N-[(2E)-3-{4-[4-Carbamoyl-5-(carbamoylamino)-2-thienyl]phenyl}prop-2-en-1-yl]-L-leucine], the pIC50 was over 6.00.

Consider `Cc1cc(-c2cc(C(N)=O)c(NC(N)=O)s2)ccc1/C=C/CN[C@@H](CC(C)C)C(=O)O` [Example 70, N-[(2E)-3-{4-[4-carbamoyl-5-(carbamoylamino)thiophen-2-yl]-2-methylphenyl}prop-2-en-1-yl]-L-leucine], for which the pIC50 is over 6.00. In the case of `CC(C)C[C@H](NC/C=C/c1ccc(-c2cc(C(N)=O)c(NC(N)=O)s2)cc1F)C(=O)O` [Example 71, N-[(2E)-3-{4-[4-carbamoyl-5-(carbamoylamino)thiophen-2-yl]-2-fluorophenyl}prop-2-en-1-yl]-L-leucine], the pIC50 was over 6.00. In the case of `CC(C)C[C@H](NC/C=C/c1ccc(-c2cc(C(N)=O)c(NC(N)=O)s2)cc1Cl)C(=O)O` [Example 72, N-[(2E)-3-{4-[4-carbamoyl-5-(carbamoylamino)thiophen-2-yl]-2-chlorophenyl}prop-2-en-1-yl]-L-leucine], the pIC50 is over 6.00. The same measure for `Cc1cc(/C=C/CN[C@@H](CC(C)C)C(=O)O)ccc1-c1cc(C(N)=O)c(NC(N)=O)s1` [Example 73, N-[(2E)-3-{4-[4-carbamoyl-5-(carbamoylamino)thiophen-2-yl]-3-methylphenyl}prop-2-en-1-yl]-L-leucine]: over 6.00; for `CC(C)C[C@H](NC/C=C/c1ccc(-c2cc(C(N)=O)c(NC(N)=O)s2)c(F)c1)C(=O)O` [Example 74, N-[(2E)-3-{4-[4-carbamoyl-5-(carbamoylamino)thiophen-2-yl]-3-fluorophenyl}prop-2-en-1-yl]-L-leucine]: over 6.00. As for `CC(C)C[C@H](NC/C=C/c1ccc(-c2cc(C(N)=O)c(NC(N)=O)s2)c(Cl)c1)C(=O)O` [Example 75, N-[(2E)-3-{4-[4-carbamoyl-5-(carbamoylamino)thiophen-2-yl]-3-chlorophenyl}prop-2-en-1-yl]-L-leucine], the pIC50 was over 6.00. For `CC(C)C[C@H](NC/C=C/c1ccc(-c2cc(C(N)=O)c(NC(N)=O)s2)cc1C(F)(F)F)C(=O)O` [Example 76, N-[(2E)-3-{4-(4-carbamoyl-5-(carbamoylamino)thiophen-2-yl]-2-(trifluoromethyl)phenyl}prop-2-en-1-yl]-L-leucine] the value was over 6.00; for `CC(C)C[C@H](NC/C=C/c1cc(F)c(-c2cc(C(N)=O)c(NC(N)=O)s2)cc1F)C(=O)O` [Example 77, N-[(2E)-3-{4-[4-carbamoyl-5-(carbamoylamino)thiophen-2-yl]-2,5-difluorophenyl}prop-2-en-1-yl]-L-leucine], over 6.00. As for `CC(C)C[C@H](NC/C=C/c1c(F)cc(-c2cc(C(N)=O)c(NC(N)=O)s2)cc1F)C(=O)O` [Example 78, N-[(2E)-3-{4-[4-carbamoyl-5-(carbamoylamino)thiophen-2-yl]-2,6-difluorophenyl}prop-2-en-1-yl]-L-leucine], the pIC50 was over 6.00.
